Laboratory results as given in patent US20220133740A1, “VALPROIC ACID COMPOUNDS AND WNT AGONISTS FOR TREATING EAR DISORDERS” (Frequency Therapeutics, Inc., priority 2019, published 2022).
Entries after “also recorded” stand apart in the source; their conditions may differ. Read-outs that look alike come from different tables or passages of the source.

How the values were obtained:
Lgr5+ cells = test: Lgr5+ Assay; type: cell-based; conditions: Table 5
GSK3-alpha [1] = target: T1, GSK3-alpha (Homo sapiens, UniProt P49840); conditions: cited from earlier work; for GSK-3 alpha: Table 5
T1 sequence (P49840 whole entry): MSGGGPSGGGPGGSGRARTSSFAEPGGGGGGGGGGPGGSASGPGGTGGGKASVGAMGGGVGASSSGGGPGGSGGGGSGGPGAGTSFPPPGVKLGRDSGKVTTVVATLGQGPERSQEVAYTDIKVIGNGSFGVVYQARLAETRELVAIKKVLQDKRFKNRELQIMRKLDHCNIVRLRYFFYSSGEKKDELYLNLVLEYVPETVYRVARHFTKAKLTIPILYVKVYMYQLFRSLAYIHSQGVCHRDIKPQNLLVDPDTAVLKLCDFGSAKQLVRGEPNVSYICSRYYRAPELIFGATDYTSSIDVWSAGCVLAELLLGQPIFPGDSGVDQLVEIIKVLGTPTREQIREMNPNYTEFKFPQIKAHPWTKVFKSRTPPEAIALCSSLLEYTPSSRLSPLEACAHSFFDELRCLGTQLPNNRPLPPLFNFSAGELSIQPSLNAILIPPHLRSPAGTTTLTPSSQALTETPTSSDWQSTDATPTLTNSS

GSK3-beta = GSK3-beta (Homo sapiens, UniProt P49841); conditions: cited from earlier work
GSK3-beta, sequence (P49841 whole entry): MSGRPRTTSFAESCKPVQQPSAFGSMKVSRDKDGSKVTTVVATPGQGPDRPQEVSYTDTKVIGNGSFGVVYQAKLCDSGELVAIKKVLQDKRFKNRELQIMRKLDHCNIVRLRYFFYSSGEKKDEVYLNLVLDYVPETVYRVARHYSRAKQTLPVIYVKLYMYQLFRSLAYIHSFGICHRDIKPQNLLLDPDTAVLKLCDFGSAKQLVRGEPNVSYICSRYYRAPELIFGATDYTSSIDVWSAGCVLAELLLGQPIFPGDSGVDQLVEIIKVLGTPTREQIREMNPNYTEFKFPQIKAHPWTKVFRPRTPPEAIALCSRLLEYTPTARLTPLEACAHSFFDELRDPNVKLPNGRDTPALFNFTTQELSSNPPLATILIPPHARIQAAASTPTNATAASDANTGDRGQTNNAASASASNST

[2] = Perilymph valproic acid after systemic plus local administration versus local-only administration; type: in vivo; conditions: guinea pig, i.v. 25 mg/mL sodium valproate plus 20 μL poloxamer formulation (sodium valproate 88.63 mg/mL, CHIR99021 3.14 mg/mL) at round window niche, perilymph at 3 hours; FIG. 4
[3] = Blood/plasma valproic acid levels after intravenous sodium valproate; type: in vivo; conditions: guinea pig, i.v. 100 mg/mL sodium valproate at 20 μL/min for 60 minutes (120 mg, about 330 mg/kg); FIG. 2A
[4] = Perilymph valproic acid along the cochlea (sequential apical sampling) after systemic sodium valproate; type: in vivo; conditions: guinea pig, perilymph at 3 hours, therapeutic level as determined in vitro on primary cochlear Lgr5 cells
GSK3-alpha [5] = target: T1, GSK3-alpha; test: GSK3-alpha inhibitor potency (Tables 2 and 5); type: biochemical

Compound | Potency (nM) GSK3-alpha (GSK3-alpha [1]; Table 2) | Potency (nM) GSK3-beta (GSK3-beta; Table 2) | further results
Cc1ccc(C(=O)Nc2c[nH]nc2C(=O)NCCCOC(C)C)cn1 [GSK-3 Inhibitor XXII, 6-methyl-N-[3-[[3-(1-methylethoxy)propyl]carbamoyl]-1H-pyrazol-4-yl]pyridine-3-carboxamide] | 2.3 nM |  | Lgr5 + Assay (Lgr5+ cells): 0.2 to 1 µM; GSK-3 alpha (GSK3-alpha [1]): 2.3 nM
CO[C@H]1CC[C@H](NC(=O)c2n[nH]cc2NC(=O)c2ccc(N3CCN(C)CC3)cc2)CC1 [Compound 4t, N-((1r,4r)-4-methoxycyclohexyl)-4-(4-(4-methylpiperazin-1-yl)benzamido)-1H-pyrazole-3-carboxamide] |  | <5 nM | 
CCCC(CCC)C(=O)O [Valproic Acid, 2-propyl pentanoic acid] |  |  | perilymph valproic acid distribution and retention, systemic plus local versus local-only administration [2]: improved the drug distribution and retention in guinea pig cochlea
Cc1ccccc1C1C2=C(CC(C)(C)CC2=O)Nc2n[nH]c(C)c21 (stereo not drawn) [Compound 11, 3,7,7-trimethyl-4-(o-tolyl)-2,4,6,7,8,9-hexahydro-5H-pyrazolo[3,4-b]quinolin-5-one] | 32 nM | 102 nM | 
COc1ccc(-c2cnc3[nH]cc(/C=C/C(=O)NCc4ccncc4)cc2-3)cc1 [Compound 27, (E)-3-(3-(4-methoxyphenyl)-7H-pyrrolo[2,3-b]pyridin-5-yl)-N-(pyridin-4-ylmethyl)acrylamide] | 42 nM | 140 nM | 
(3-aminopyrido[2,3-a]pyrrolo[3,4-c]carbazole-5,7(1H,6H)-dionato-κN^1,κN^12)carbonylchloro(2-pyridinemethanamine-κN^1,κN^2)-, (OC-6-24-A)-Ruthenium [lambda-OS1] | 0.9 nM | 6 nM | 
Cc1cnc(-c2cnc(NCCNc3ccc(C#N)cn3)nc2-c2ccc(Cl)cc2Cl)[nH]1 [CHIR99021, 6-[[2-[[4-(2,4-dichlorophenyl)-5-(5-methyl-1H-imidazol-2-yl)-2-pyrimidinyl]amino]ethyl]amino]-3-pyridinecarbonitrile] |  |  | Lgr5 + Assay (Lgr5+ cells): 2 to 6 µM
CCCC(CCC)C(=O)[O-].[Na+] [Sodium Valproate, sodium 2-propylpentanoate] |  |  | time at which plasma levels peaked [3]: ≤ 1 h; distribution and level of valproate in cochlear perilymph ([4]; i.v. 25 mg/mL sodium valproate at 20 μL/min for 60 min (about 26 mg valproate)): did not achieve therapeutic levels; distribution and level of valproate in cochlear perilymph (apex to base, serial samples 1-4) ([4]; i.v. 100 mg/mL sodium valproate at 20 μL/min for 60 min): Uniform distribution of valproate was observed throughout the cochlea at 3 hours; also recorded: uniform distribution and therapeutic levels
CO[C@H]1CC[C@H](NC(=O)c2n[nH]cc2NC(=O)c2ncoc2-c2ccccc2)CC1 [Compound 4z, N-(3-(((1r,4r)-4-methoxycyclohexyl)carbamoyl)-1H-pyrazol-4-yl)-5-phenyloxazole-4-carboxamide] |  | 5 nM | 
O=C1NC(=O)[C@@H](c2cn3c4c(cccc24)CCC3)[C@@H]1c1c[nH]c2ccccc12 [Tivantinib, (3R,4R)-3-(5,6-dihydro-4H-pyrrolo[3,2,1-ij]quinolin-1-yl)-4-(1H-indol-3-yl)pyrrolidine-2,5-dione] | 659 nM | 1865 nM | 
N#Cc1ccc2c(c1)/C(=C1\C=CC(CN3CCOCC3)=CN1)C(=O)N2 [AZD1080, (Z)-3-(5-(morpholinomethyl)pyridin-2(1H)-ylidene)-2-oxoindoline-5-carbonitrile] | 6.9 nM |  | Lgr5 + Assay (Lgr5+ cells): 1 to 5 µM; GSK-3 alpha (GSK3-alpha [1]): 6.9 nM
c1ccc(Nc2ncc3nnn(-c4ccccc4)c3n2)cc1 [Compound 90, N,3-diphenyl-3H-[1,2,3]triazolo[4,5-d]pyrimidin-5-amine] | 330 nM | 628 nM | 
Cn1cc(C2=C(c3cccc(N)c3)C(=O)NC2=O)c2ccccc21 [Compound 3, 3-(3-aminophenyl)-4-(1-methyl-1H-indol-3-yl)-1H-pyrrole-2,5-dione] | 3 nM | 10 nM | 
CO[C@H]1CC[C@H](NC(=O)c2n[nH]cc2NC(=O)C2CCC(F)(F)CC2)CC1 [Compound 4a, 4-(4,4-difluorocyclohexane-1-carboxamido)-N-((1r,4r)-4-metboxycyclohexyl)-1H-pyrazole-3-carboxamide] |  | 8 nM | 
carbonyl(η^5-2,4-cyclopentadien-1-yl)(9-hydroxypyrido[2,3-a]pyrrolo[3,4-c]carbazole-5,7(1H,6H)-dionato-κN^1,κN^12)-Ruthenium [(R)-DW12] | 0.5 nM | 1 nM | 
O=C1NC(=O)C(c2cnc3ccccn23)=C1c1cn2c3c(cc(F)cc13)CN(C(=O)N1CCCCC1)CC2 [LY2090314, 3-(9-fluoro-2-(piperidine-1-carbonyl)-1,2,3,4-tetrahydro-[1,4]diazepino[6,7,1-hi]indol-7-yl)-4-(imidazo[1,2-a]pyridin-3-yl)-1H-pyrrole-2,5-dione] |  |  | Lgr5 + Assay (Lgr5+ cells): 0.005 to 0.02 µM; GSK-3 alpha (GSK3-alpha [1]): 2.1 nM; GSK3-beta potency (GSK3-beta; Table 5): 0.9 nM
COc1ccccc1[C@@H]1C2=C(CC(C)(C)CC2=O)N=C2NNC(C(F)(F)F)=C21 [BRD1172, (R)-4-(2-methoxyphenyl)-7,7-dimethyl-3-(trifluoromethyl)-1,2,4,6,7,8-hexahydro-5H-pyrazolo[3,4-b]quinolin-5-one] |  |  | Ratio of alpha to beta (GSK3-alpha [5]): 3.3; Potency (nM) GSK3-alpha (GSK3-alpha [1]): 3 nM; Potency (nM) GSK3-beta (GSK3-beta): 10 nM
Cc1[nH]nc2c1C(c1cccc(F)c1)C1=C(CC(C)(C)CC1=O)N2 (stereo not drawn) [Compound 9, 4-(3-fluorophenyl)-3,7,7-trimethyl-2,4,6,7,8,9-hexahydro-5H-pyrazolo[3,4-b]quinolin-5-one] | 62 nM | 156 nM | 
O=C(O)COc1ccc(Nc2ncc3nnn(-c4ccccc4)c3n2)cc1 [Compound 92, 2-(4-((3-phenyl-3H-[1,2,3]triazolo[4,5-d]pyrimidin-5-yl)amino)phenoxy)acetic acid] | 9 nM | 13 nM | 
CC1(C)CC(=O)C2=C(C1)Nc1n[nH]c(C(F)(F)F)c1[C@]2(C)c1ccccc1 [BRD1652, N-4,7,7-trimethyl-4-phenyl-3-(trifluoromethyl)-2,4,6,7,8,9-hexahydro-5H-pyrazolo[3,4-b]quinolin-5-one] | 0.4 nM | 4 nM | 
Cc1[nH]nc2c1[C@](C)(c1ccccc1)C1=C(CC(C)(C)CC1=O)N2 [Compound 16, (S)-3,4,7,7-tetramethyl-4-phenyl-2,4,6,7,8,9-hexahydro-5H-pyrazolo[3,4-b]quinolin-5-one] | 8 nM | 26 nM | 
